Literature values in patent US8653059B2, “Heterocyclic compounds as dipeptidyl peptidase-IV inhibitors for the treatment or prevention of diabetes” (Merck Sharp & Dohme Corp., priority 2007, dated 2014).

Columns and labels:
cardiac allograft = settings: rats; Transplantation 63: 1495-1500 (1997)
hematopoiesis = settings: mouse model of cyclophosphamide-induced neutropenia; WO 99/56753
DPP-4 = target: T1, DPP-4 (Homo sapiens, UniProt P27487)
T1 construct: GRF is rapidly degraded in plasma to GRF[3-44]; host or cells: plasma
T1 sequence (P27487 whole entry, species assumed): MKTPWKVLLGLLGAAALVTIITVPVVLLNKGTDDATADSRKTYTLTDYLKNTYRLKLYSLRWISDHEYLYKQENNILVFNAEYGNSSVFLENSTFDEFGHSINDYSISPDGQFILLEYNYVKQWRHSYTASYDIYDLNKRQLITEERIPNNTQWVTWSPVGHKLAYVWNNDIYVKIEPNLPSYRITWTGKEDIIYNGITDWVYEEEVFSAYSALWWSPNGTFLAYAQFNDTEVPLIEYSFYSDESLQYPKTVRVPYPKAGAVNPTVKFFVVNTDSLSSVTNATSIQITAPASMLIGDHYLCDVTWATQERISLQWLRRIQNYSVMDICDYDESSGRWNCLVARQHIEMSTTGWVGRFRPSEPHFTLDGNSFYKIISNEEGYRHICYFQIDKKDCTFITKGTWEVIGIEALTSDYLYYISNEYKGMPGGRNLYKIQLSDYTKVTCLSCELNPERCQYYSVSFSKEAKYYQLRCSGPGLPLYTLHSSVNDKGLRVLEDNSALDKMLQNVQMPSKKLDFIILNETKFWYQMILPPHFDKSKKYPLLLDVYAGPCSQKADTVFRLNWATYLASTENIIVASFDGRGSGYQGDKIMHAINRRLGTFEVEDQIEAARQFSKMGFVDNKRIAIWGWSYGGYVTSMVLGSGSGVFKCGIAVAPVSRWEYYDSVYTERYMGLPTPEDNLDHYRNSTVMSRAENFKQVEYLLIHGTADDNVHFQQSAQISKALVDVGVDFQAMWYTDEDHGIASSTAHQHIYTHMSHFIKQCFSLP

CC(C)N1CCC(c2ccccc2)(c2ccccc2)CC1 [Prodipine, Pro-Pro-diphenyl-phosphonate]
cardiac allograft survival (cardiac allograft): double cardiac allograft survival in rats from day 7 to day 14

CC(C)[C@H](N)C(=O)N1CCC[C@H]1B(O)O [Val-Boro-Pro]
hematopoiesis (hematopoiesis): stimulated hematopoiesis

diprotin A
degradation of GRF in plasma to GRF[3-44] (DPP-4): prevented
